Assay results from patent publication US6825230B2, “Spiro and dispiro 1,2,4-trixolane antimalarials” (Medicines for Malaria Venture MMV, priority 2002, dated 2004).
≈ marks a conversion by molar mass, not a printed value. Where two headings read alike, the source gives them in different places.

Columns and labels:
[1] = tested on: chloroquine-resistant K1 strain of P. falciparum; test: In vitro antimalarial semiautomated microdilution assay ([3H]-hypoxanthine incorporation), K1 strain; format: cell-based, Plasmodium falciparum; conditions: for IC50: Plasmodium falciparum
Method in brief: (§1)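 IC50 comes from Logit regression of [3H]-hypoxanthine incorporation data. Intraerythrocytic P. falciparum taken from asynchronous stock cultures is exposed to OZ compounds in a semiautomated microdilution format.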

[2] = tested on: chloroquine-sensitive NF54 strain of P. falciparum; test: In vitro antimalarial semiautomated microdilution assay ([3H]-hypoxanthine incorporation), NF54 strain; format: cell-based, Plasmodium falciparum; conditions: for IC50: Plasmodium falciparum
Method in brief: as §1

[3] = tested on: ANKA strain of P. berghei; test: Single dose STI in vivo screen in infected mice; design: species or system Plasmodium berghei; conditions: for Survival (days) 10 mg/kg po: single 10 mg/kg po in 3% ethanol and 7% Tween 80; for Survival (days) 10 mg/kg po / Survival (days) 10 mg/kg SSV po / Survival (days) 10 mg/kg sc: untreated 6-7 days; for Activity (%) 10 mg/kg po: single 10 mg/kg po in 3% ethanol and 7% Tween 80 on day 1 post-infection; for Activity (%) 10 mg/kg po / Activity (%) 10 mg/kg SSV po / Activity (%) 10 mg/kg sc / Activity (%) 3 mg/kg SSV po: percent reduction in parasitemia on day 3; for Survival (days) 10 mg/kg SSV po: single 10 mg/kg po in SSV; for Activity (%) 10 mg/kg SSV po: single 10 mg/kg po in standard suspending vehicle (SSV) on day 1 post-infection; for Survival (days) 10 mg/kg sc: single 10 mg/kg sc in 3% ethanol and 7% Tween 80; for Activity (%) 10 mg/kg sc: single 10 mg/kg sc in 3% ethanol and 7% Tween 80 on day 1 post-infection; for Survival (days) 3 mg/kg SSV po / Activity (%) 3 mg/kg SSV po: single 3 mg/kg po in SSV
[4] = K1, 72 h, read-out: IC50 (ng/ml) K1, chloroquine-resistant K1 strain, 72 h incubation
[5] = NF54, 72 h, read-out: IC50 (ng/ml) NF54, chloroquine-sensitive NF54 strain, 72 h incubation
[6] = chloroquine-resistant K1 strain, 72 h incubation, read-out: IC50 (ng/ml) K1
[7] = chloroquine-sensitive NF54 strain, 72 h incubation, read-out: IC50 (ng/ml) NF54

| Structure (SMILES) | IC50 (ng/ml) K1 ([1]; chloroquine-resistant K1 strain, 72 h incubation, hydrochloride) [ng/mL] | IC50 (ng/ml) NF54 ([2]; chloroquine-sensitive NF54 strain, 72 h incubation, hydrochloride) [ng/mL] | Survival (days) 10 mg/kg po ([3]; hydrochloride, 10 mg/kg) [days] | Activity (%) 10 mg/kg po ([3]; hydrochloride, 10 mg/kg) [%] | Survival (days) 10 mg/kg SSV po ([3]; hydrochloride, 10 mg/kg) [days] | Activity (%) 10 mg/kg SSV po ([3]; hydrochloride, 10 mg/kg) [%] | Survival (days) 10 mg/kg sc ([3]; hydrochloride, 10 mg/kg) [days] | Activity (%) 10 mg/kg sc ([3]; hydrochloride, 10 mg/kg) [%] | IC50 [1, 4] [ng/mL] | IC50 [2, 5] [ng/mL] | Survival (days) 10 mg/kg po [3] [days] | Activity (%) 10 mg/kg po [3] [%] | Survival (days) 10 mg/kg SSV po [3] [days] | Activity (%) 10 mg/kg SSV po [3] [%] | Survival (days) 10 mg/kg sc [3] [days] | Activity (%) 10 mg/kg sc [3] [%] | IC50 [1, 6] [ng/mL] | IC50 [2, 7] [ng/mL] | Survival (days) 3 mg/kg SSV po [3] [days] | Activity (%) 3 mg/kg SSV po [3] [%] |
| --- | --- | --- | --- | --- | --- | --- | --- | --- | --- | --- | --- | --- | --- | --- | --- | --- | --- | --- | --- | --- |
| CC1(C)COC(c2ccc([C@H]3CC[C@]4(CC3)OOC3(O4)C4CC5CC(C4)CC3C5)cc2)=N1 (stereo partly shown) [OZ180] | 3.7 (≈ 8.46 nM) | 2.8 (≈ 6.4 nM) | 13.7 | 99.91 | 12.7 | 97 | 10.3 | 65 |  |  |  |  |  |  |  |  |  |  |  |  |
| O=C(OC[C@H]1CC[C@]2(CC1)OOC1(O2)C2CC3CC(C2)CC1C3)n1ccnc1 (stereo partly drawn) [OZ141, cis-Adamantane-2-spiro-3′-1′,2′,4′-trioxaspiro[4.5]decane-8′-methyl imidazole-1-carboxylate] |  |  |  |  |  |  |  |  | 1.7 (≈ 4.38 nM) | 1.9 (≈ 4.89 nM) | 8.0 | 98 | 8.0 | 97 | 8.7 | 99.89 |  |  |  |  |
| NC1(C(=O)NC[C@H]2CC[C@]3(CC2)OO[C@]2(O3)C3CC4CC(C3)CC2C4)CCCCC1 [OZ333] |  |  |  |  |  |  |  |  |  |  |  |  | 9.2 |  |  |  | 0.24 (≈ 0.573 nM) | 0.44 (≈ 1.05 nM) | 8.0 | 96 |
| COC(=O)c1ccc(C2(c3ccccc3)OOC3(O2)C2CC4CC(C2)CC3C4)cc1 (stereo not shown) [OZ138, Adamantane-2-spiro-3′-5′-[4′-(methoxycarbonyl)phenyl]-5′-phenyl-1′,2′,4′-trioxolane] |  |  |  |  |  |  |  |  | 10 (≈ 24.6 nM) | 19 (≈ 46.7 nM) | 5.7 | 0 | 6.3 | 5 | 6.3 | 7 |  |  |  |  |
| O=C1CN(C(=O)C[C@H]2CC[C@]3(CC2)OO[C@]2(O3)C3CC4CC(C3)CC2C4)CCN1 [OZ296] |  |  |  |  |  |  |  |  |  |  |  |  | 10.0 | 99.22 |  |  | 0.6 (≈ 1.48 nM) | 0.89 (≈ 2.2 nM) | 9.2 | 90 |
| CC1(C)C2CCC1(CS(=O)(=O)N1CCC3(CC1)OOC1(O3)C3CC4CC(C3)CC1C4)C(=O)C2 (stereo not drawn) [OZ91, Adamantane-2-spiro-3′-8′-[(1′S)-10′-camphorsulfonyl]-1′,2′,4′-trioxa-8′-azaspiro[4.5]decane] |  |  |  |  |  |  |  |  | 1.4 (≈ 2.92 nM) | 0.42 (≈ 0.876 nM) | 5.7 | 20 | 6.0 | 0 | 7.3 | 85 |  |  |  |  |
| O=C(OC1CCC2(CC1)OOC1(O2)C2CC3CC(C2)CC1C3)n1ccnc1 (stereo not shown) [OZ147, Adamantane-2-spiro-3′-1′,2′,4′-trioxaspiro[4.5]decane-8′-yl imidazole-1-carboxylate] |  |  |  |  |  |  |  |  |  |  | 8.0 | 85 | 8.0 | 71 | 19.7 | 99.89 | 1.1 (≈ 2.94 nM) | 1.8 (≈ 4.81 nM) |  |  |
| c1ccc2c(c1)OCCC21OOC2(O1)C1CC3CC(C1)CC2C3 (stereo not shown) [OZ134, Adamantane-2-spiro-3′-1′,2′,4′-trioxolane-5′-spiro-4″-2″, 3″-dihydro-4″H-1″-benzopyran] |  |  |  |  |  |  |  |  | 0.88 (≈ 2.8 nM) | 1.1 (≈ 3.5 nM) | 6.3 | 72 | 6.0 | 27 | 15.3 | 99.95 |  |  |  |  |
| CN(C)S(=O)(=O)N1CCC2(CC1)OOC1(O2)C2CC3CC(C2)CC1C3 (stereo not shown) [OZ190, Adamantane-2-spiro-3′-8′-(dimethylaminosulfonyl)-1′,2′,4′-trioxa-8′-azaspiro[4.5]decane] |  |  |  |  |  |  |  |  | 0.16 (≈ 0.43 nM) | 1 (≈ 2.68 nM) | 8.7 | 98 | 7.7 | 78 | 5.7 | 2 |  |  |  |  |
| NC(=O)C[C@H]1CC[C@]2(CC1)OOC1(O2)C2CC3CC(C2)CC1C3 (stereo partly shown) [OZ243] |  |  |  |  |  |  |  |  | 0.91 (≈ 2.83 nM) | 1.1 (≈ 3.42 nM) | 7.3 | 87 | 8.7 | 97 | 6.3 | 70 |  |  |  |  |
| O=C(O)c1ccc(OC[C@H]2CC[C@]3(CC2)OOC2(O3)C3CC4CC(C3)CC2C4)cc1 (stereo partly shown) [OZ176] |  |  |  |  |  |  |  |  | 25 (≈ 60.3 nM) | 35 (≈ 84.4 nM) | 7.0 | 11 | 7.7 | 18 | 7.0 | 24 |  |  |  |  |
| S=C(Nc1ccccc1)N1CCC2(CC1)OOC1(O2)C2CC3CC(C2)CC1C3 (stereo not shown) [OZ144, Adamantane-2-spiro-3′-8′-(phenylaminothiocarbonyl)-1′,2′,4′-trioxa-8′-azaspiro[4.5]decane] |  |  |  |  |  |  |  |  | 1.4 (≈ 3.5 nM) | 2.1 (≈ 5.24 nM) | 7.3 | 99.45 | 7.3 | 92 | 16.7 | 99.94 |  |  |  |  |
| C(CNC1CCC2(CC1)OOC1(O2)C2CC3CC(C2)CC1C3)CN1CCOCC1 (stereo not shown) [OZ161] |  |  |  |  |  |  |  |  | 0.4 (≈ 0.984 nM) | 0.5 (≈ 1.23 nM) | 7.0 | 59 | 6.7 | 46 | 12.7 | 99.96 |  |  |  |  |
| CC(=O)OC(C)(C)C(=O)N[C@H]1CC[C@]2(CC1)OOC1(O2)C2CC3CC(C2)CC1C3 (stereo partly shown) [OZ202] |  |  |  |  |  |  |  |  | 6 (≈ 14.7 nM) | 7.9 (≈ 19.4 nM) | 7.0 | 79 | 7.3 | 51 | 7.3 | 74 |  |  |  |  |
| O=C(O)COCC(=O)N1CCC2(CC1)OOC1(O2)C2CC3CC(C2)CC1C3 (stereo not shown) [OZ112, Adamantane-2-spiro-3′-8′-[(carboxymethoxy)acetyl]-1′,2′,4′-trioxa-8′-azaspiro[4.5]decane] |  |  |  |  |  |  |  |  | > 10 | > 10 | 5.7 | 6 | 5.7 | 0 | 6.3 | 36 |  |  |  |  |
